In ChEMBL document CHEMBL2046268 (Eur J Med Chem, 2012):
One block for each molecule: values may come before it. Active and inactive are the calls of the source. No cut-off for these calls is given here.

How the values were obtained:
Caspase-3 (Homo sapiens) [1] = molecular target: T1, Caspase-3 (Homo sapiens) (UniProt P42574); experiment: Induction of caspase 3 activation in human HeLa cells using Ac-DEVD-pNA at 4 uM after 4 hrs by Bradford assay; assay type: cell-based
T1 sequence (whole entry): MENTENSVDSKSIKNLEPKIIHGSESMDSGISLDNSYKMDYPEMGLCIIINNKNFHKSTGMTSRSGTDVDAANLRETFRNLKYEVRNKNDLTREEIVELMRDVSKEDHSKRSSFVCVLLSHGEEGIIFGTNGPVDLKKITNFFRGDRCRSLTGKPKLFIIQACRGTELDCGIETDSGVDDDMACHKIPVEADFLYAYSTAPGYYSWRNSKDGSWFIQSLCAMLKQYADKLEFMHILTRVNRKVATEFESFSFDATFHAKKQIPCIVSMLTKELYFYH

Caspase-3 (Homo sapiens) [2] = molecular target: T1, Caspase-3 (Homo sapiens); experiment: Induction of caspase 3 activation in human HeLa cells using Ac-DEVD-pNA at 8 uM after 4 hrs by Bradford assay; assay type: cell-based
HeLa [3] = experiment: Induction of apoptosis in human HeLa cells assessed as DNA fragmentation at 16 uM after 48 hrs by agarose gel electrophoresis; assay type: functional, cell-based
Caspase-3 (Homo sapiens) [4] = molecular target: T1, Caspase-3 (Homo sapiens); experiment: Induction of caspase 3 activation in human HeLa cells using Ac-DEVD-pNA after 4 hrs by Bradford assay; assay type: cell-based
HeLa [5] = experiment: Induction of apoptosis in human HeLa cells assessed as DNA fragmentation at 4 to 32 uM after 12 hrs by agarose gel electrophoresis; assay type: functional, cell-based
MCF7 [6] = experiment: Cytotoxicity against human MCF7 cells assessed as cell viability after 48 hrs by MTT assay; assay type: functional, cell-based; details: MCF7, 48 h
HeLa [7] = experiment: Induction of apoptosis in human HeLa cells assessed as phosphatidylserine externalization at 2 to 16 uM using annexin/PI staining by fluorescence microscopy; assay type: functional, cell-based; details: TDE = time-dependent effect
HeLa [8] = experiment: Cytotoxicity against human HeLa cells assessed as cell viability after 48 hrs by MTT assay; assay type: functional, cell-based
Vero [9] = experiment: Cytotoxicity against african green monkey Vero cells assessed as cell viability after 48 hrs by MTT assay; assay type: cell-based; details: Chlorocebus sabaeus
HeLa [10] = experiment: Induction of apoptosis in human HeLa cells assessed as chromatin condensation at 8 uM after 12 hrs using Hoechst 33342 staining by fluorescence microscopic analysis; assay type: functional, cell-based
HeLa [11] = experiment: Induction of apoptosis in human HeLa cells assessed as increase in sub-G1 DNA content at 24 uM after 12 hrs using Propidium iodide staining by flow cytometry; assay type: functional, cell-based
HeLa [12] = experiment: Induction of apoptosis in human HeLa cells assessed as DNA fragmentation at 16 to 32 uM after 24 hrs by agarose gel electrophoresis; assay type: functional, cell-based
HeLa [13] = experiment: Induction of apoptosis in human HeLa cells assessed as necrotic cells at 8 uM after 1 to 2 hrs using annexin/PI staining by fluorescence microscopy; assay type: functional, cell-based
Caspase-3 (Homo sapiens) [14] = molecular target: T1, Caspase-3 (Homo sapiens); experiment: Increase in caspase 3 activation in human HeLa cells using Ac-DEVD-pNA at 32 uM after 4 hrs by Bradford assay relative to control; assay type: cell-based
HeLa [15] = experiment: Cytotoxicity against human HeLa cells assessed as cell viability after 72 hrs by MTT assay; assay type: functional, cell-based
A549 [16] = experiment: Cytotoxicity against human A549 cells assessed as cell viability after 72 hrs by MTT assay; assay type: functional, cell-based; details: A549, 72 h
MCF7 [17] = experiment: Cytotoxicity against human MCF7 cells assessed as cell viability after 72 hrs by MTT assay; assay type: functional, cell-based; details: MCF7, 72 h
HeLa [18] = experiment: Induction of apoptosis in human HeLa cells assessed as phosphatidylserine externalization after 0.5 to 4 hrs using annexin/PI staining by fluorescence microscopy; assay type: functional, cell-based
HeLa [19] = experiment: Induction of apoptosis in human HeLa cells assessed as necrotic cells after 0.5 to 4 hrs using annexin/PI staining by fluorescence microscopy; assay type: functional, cell-based
A549 [20] = experiment: Cytotoxicity against human A549 cells assessed as cell viability after 48 hrs by MTT assay; assay type: functional, cell-based; details: A549, 48 h
Vero [21] = experiment: Cytotoxicity against african green monkey Vero cells assessed as cell viability after 72 hrs by MTT assay; assay type: cell-based; details: Chlorocebus sabaeus
HeLa [22] = experiment: Induction of apoptosis in human HeLa cells assessed as necrotic cells at 2 to 16 uM using annexin/PI staining by fluorescence microscopy; assay type: functional, cell-based; details: TDE = time-dependent effect
Vero [23] = experiment: Selectivity index, ratio of IC50 for african green monkey Vero cells to IC50 for human MCF7 cells after 48 hrs
HeLa [24] = experiment: Induction of apoptosis in human HeLa cells assessed as formation of apoptotic bodies at 8 uM after 12 hrs using Hoechst 33342 staining by fluorescence microscopic analysis; assay type: functional, cell-based
Caspase-3 (Homo sapiens) [25] = molecular target: T1, Caspase-3 (Homo sapiens); experiment: Increase in caspase 3 activation in human HeLa cells using Ac-DEVD-pNA at 12 uM after 4 hrs by Bradford assay relative to control; assay type: cell-based
HeLa [26] = experiment: Induction of apoptosis in human HeLa cells assessed as early apoptotic cells at 2 to 4 uM up to 4 hrs using annexin/PI staining by fluorescence microscopy; assay type: functional, cell-based
HeLa [27] = experiment: Induction of apoptosis in human HeLa cells assessed as DNA fragmentation at 2 uM after 48 hrs by agarose gel electrophoresis; assay type: functional, cell-based
Caspase-3 (Homo sapiens) [28] = molecular target: T1, Caspase-3 (Homo sapiens); experiment: Induction of caspase 3 activation in human HeLa cells using Ac-DEVD-pNA at 2 uM after 4 hrs by Bradford assay; assay type: cell-based
HeLa [29] = experiment: Induction of apoptosis in human HeLa cells at 12 uM after 2 to 4 hrs using annexin/PI staining by fluorescence microscopy; assay type: functional, cell-based
Caspase-3 (Homo sapiens) [30] = molecular target: T1, Caspase-3 (Homo sapiens); experiment: Induction of caspase 3 activation in human HeLa cells using Ac-DEVD-pNA at 24 uM after 8 hrs by Bradford assay; assay type: cell-based
HeLa [31] = experiment: Induction of apoptosis in human HeLa cells at 8 uM after 2 to 4 hrs using annexin/PI staining by fluorescence microscopy; assay type: functional, cell-based
HeLa [32] = experiment: Induction of apoptosis in human HeLa cells at 16 uM after 2 to 4 hrs using annexin/PI staining by fluorescence microscopy; assay type: functional, cell-based

Activity (Caspase-3 (Homo sapiens) [1]): inactive | Activity (Caspase-3 (Homo sapiens) [2]): inactive | Activity (Caspase-3 (Homo sapiens) [4]): Dose-dependent effect | Activity (Caspase-3 (Homo sapiens) [14]): inactive
Compound: CC1=C(CO[Si](C)(C)C(C)(C)C)C(=O)O[C@@H]([C@@H](C)[C@H]2CC[C@H]3[C@@H]4C[C@H]5O[C@]56[C@@H](O)C=CC(=O)[C@]6(C)[C@H]4CC[C@]23C)C1
Activity (HeLa [3]): inactive | Activity (HeLa [5]): inactive | IC50 (MCF7 [6]): 700 nM | Activity (HeLa [7]): tde | IC50 (HeLa [8]): 900 nM | IC50 (Vero [9]): 700 nM | Activity (HeLa [10]): Active | Activity (HeLa [11]): Active | Activity (HeLa [12]): inactive | Activity (HeLa [13]): inactive | IC50 (HeLa [15]): 1000 nM | IC50 (A549 [16]): 1500 nM | IC50 (MCF7 [17]): 700 nM | Activity (HeLa [18]): Dose-dependent effect | Activity (HeLa [19]): Dose-dependent effect | IC50 (A549 [20]): 1500 nM | IC50 (Vero [21]): 900 nM | Activity (HeLa [22]): tde | Ratio IC50 (Vero [23]): 1 | Activity (HeLa [24]): Active

Compound: CC1=C(CO)C(=O)O[C@@H]([C@@H](C)C2=CC[C@H]3[C@@H]4C[C@H]5O[C@]56[C@@H](O)C=CC(=O)[C@]6(C)[C@H]4CC[C@]23C)C1 [WITHARISTATIN]
Activity (Caspase-3 (Homo sapiens) [1]): inactive | fold change (FC) (Caspase-3 (Homo sapiens) [25]): 1 | Activity (Caspase-3 (Homo sapiens) [2]): inactive | Activity (HeLa [3]): inactive | Activity (Caspase-3 (Homo sapiens) [4]): Dose-dependent effect | Activity (HeLa [5]): inactive | IC50 (MCF7 [6]): 1200 nM | Activity (HeLa [7]): tde | Activity (HeLa [26]): Active | IC50 (HeLa [8]): 3500 nM | IC50 (Vero [9]): 3400 nM | Activity (HeLa [10]): Active | Activity (HeLa [11]): Active | Activity (HeLa [12]): inactive | IC50 (HeLa [15]): 2700 nM | IC50 (A549 [16]): 2300 nM | IC50 (MCF7 [17]): 300 nM | Activity (HeLa [18]): Dose-dependent effect | Activity (HeLa [19]): Dose-dependent effect | IC50 (A549 [20]): 4200 nM | IC50 (Vero [21]): 2600 nM | Activity (HeLa [22]): tde | Ratio IC50 (Vero [23]): 2.8 | Activity (HeLa [24]): Active

Compound: CN[C@@H]1C[C@H]2O[C@@](C)([C@@H]1OC)n1c3ccccc3c3c4c(c5c6ccccc6n2c5c31)C(=O)NC4
Activity (HeLa [27]): Active | Activity (Caspase-3 (Homo sapiens) [28]): Active

Activity (Caspase-3 (Homo sapiens) [1]): inactive | Activity (Caspase-3 (Homo sapiens) [2]): inactive | Activity (Caspase-3 (Homo sapiens) [4]): Dose-dependent effect | Activity (Caspase-3 (Homo sapiens) [30]): Active
Compound: CC1=C(CO[Si](C)(C)C(C)(C)C)C(=O)O[C@@H]([C@@H](C)[C@H]2CC[C@H]3[C@@H]4C[C@H]5O[C@]56C(=O)C=CC(=O)[C@]6(C)[C@H]4CC[C@]23C)C1
Activity (HeLa [3]): inactive | Activity (HeLa [5]): inactive | IC50 (MCF7 [6]): 500 nM | Activity (HeLa [7]): tde | IC50 (HeLa [8]): 1700 nM | IC50 (Vero [9]): 3100 nM | Activity (HeLa [10]): Active | Activity (HeLa [11]): Active | Activity (HeLa [12]): inactive | IC50 (HeLa [15]): 2100 nM | IC50 (A549 [16]): 2900 nM | Activity (HeLa [29]): Active | IC50 (MCF7 [17]): 200 nM | Activity (HeLa [18]): Dose-dependent effect | Activity (HeLa [19]): Dose-dependent effect | IC50 (A549 [20]): 5300 nM | IC50 (Vero [21]): 4000 nM | Activity (HeLa [31]): Active | Activity (HeLa [22]): tde | Ratio IC50 (Vero [23]): 6.2 | Activity (HeLa [32]): Active | Activity (HeLa [24]): Active
